Test [1] relates to Staphylococcus aureus. The test is described as follows: Antimicrobial activity against Staphylococcus aureus ATCC 29213 by broth microdilution method. Background: Dilution methods test growth across graded concentrations, often in twofold steps.
The subject of the next test is Escherichia coli. The test is described as follows: Antimicrobial activity against Escherichia coli ATCC 25922 by broth microdilution method.
In the next test the test system is Candida albicans. Description: Antimicrobial activity against Candida albicans ATCC 10231 by broth microdilution method.
Test [2] has as its system Staphylococcus aureus. The test is described as follows: Antimicrobial activity against Staphylococcus aureus. The test is classed as functional.
Test [3] concerns the target Vascular endothelial growth factor receptor 2 (Homo sapiens, UniProt P35968). The test is described as follows: Inhibition of VEGFR2 (unknown origin).

≈ marks a conversion by molar mass, not a printed value.

Chain of Vascular endothelial growth factor receptor 2 (P35968 whole entry): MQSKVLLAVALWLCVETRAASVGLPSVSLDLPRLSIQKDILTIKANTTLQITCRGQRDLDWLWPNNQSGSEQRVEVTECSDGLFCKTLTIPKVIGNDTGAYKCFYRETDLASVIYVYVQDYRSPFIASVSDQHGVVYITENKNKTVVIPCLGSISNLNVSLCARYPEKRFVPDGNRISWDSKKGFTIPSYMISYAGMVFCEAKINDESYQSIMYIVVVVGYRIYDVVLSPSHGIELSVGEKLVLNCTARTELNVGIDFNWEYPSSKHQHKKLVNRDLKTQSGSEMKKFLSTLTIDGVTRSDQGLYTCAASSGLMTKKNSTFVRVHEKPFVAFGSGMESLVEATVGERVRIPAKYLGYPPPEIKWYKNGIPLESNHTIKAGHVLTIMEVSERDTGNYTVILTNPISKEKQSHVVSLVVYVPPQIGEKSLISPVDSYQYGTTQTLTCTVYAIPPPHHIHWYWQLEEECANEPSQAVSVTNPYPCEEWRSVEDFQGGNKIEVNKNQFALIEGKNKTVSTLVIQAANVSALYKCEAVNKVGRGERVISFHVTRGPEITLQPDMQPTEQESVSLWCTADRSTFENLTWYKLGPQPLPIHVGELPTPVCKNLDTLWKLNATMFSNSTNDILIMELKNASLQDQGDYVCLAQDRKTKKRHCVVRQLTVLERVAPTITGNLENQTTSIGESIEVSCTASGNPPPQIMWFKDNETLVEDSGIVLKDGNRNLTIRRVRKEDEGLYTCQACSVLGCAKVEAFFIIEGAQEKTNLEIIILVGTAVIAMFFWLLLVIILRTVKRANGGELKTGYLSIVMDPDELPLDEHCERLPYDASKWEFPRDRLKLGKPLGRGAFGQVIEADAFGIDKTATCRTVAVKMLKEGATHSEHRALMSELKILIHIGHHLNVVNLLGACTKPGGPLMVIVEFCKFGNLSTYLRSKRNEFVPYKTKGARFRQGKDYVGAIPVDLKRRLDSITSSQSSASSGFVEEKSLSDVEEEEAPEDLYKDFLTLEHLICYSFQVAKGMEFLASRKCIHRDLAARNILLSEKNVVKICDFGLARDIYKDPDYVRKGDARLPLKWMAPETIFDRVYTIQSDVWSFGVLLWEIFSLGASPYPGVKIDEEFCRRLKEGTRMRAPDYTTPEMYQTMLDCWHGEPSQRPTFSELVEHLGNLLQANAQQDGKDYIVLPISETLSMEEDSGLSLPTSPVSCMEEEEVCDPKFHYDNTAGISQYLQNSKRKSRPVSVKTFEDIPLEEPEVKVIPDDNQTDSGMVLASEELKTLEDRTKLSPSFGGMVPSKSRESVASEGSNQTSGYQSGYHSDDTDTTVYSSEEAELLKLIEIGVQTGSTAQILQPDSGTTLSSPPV

On to `CNC(C)[C@@H]1CC[C@@H](N)[C@@H](O[C@H]2[C@H](O)[C@@H](O[C@H]3OC[C@](C)(O)[C@H](NC)[C@H]3O)[C@H](N)C[C@@H]2N)O1.CN[C@@H]1[C@@H](O)[C@@H](O[C@@H]2[C@@H](O)[C@H](O[C@H]3O[C@H](C(C)N)CC[C@H]3N)[C@@H](N)C[C@H]2N)OC[C@]1(C)O.CN[C@@H]1[C@@H](O)[C@@H](O[C@@H]2[C@@H](O)[C@H](O[C@H]3O[C@H](CN)CC[C@H]3N)[C@@H](N)C[C@H]2N)OC[C@]1(C)O` (stereo partly drawn), for which, in the test with Staphylococcus aureus [1], it took 0.5 µg/mL to inhibit growth (MIC).

On to `O=c1ccc(/C=C/c2ccc(NS(=O)(=O)c3cccc(Br)c3)cc2)n[nH]1`, for which the MIC in the test with Escherichia coli turned out to be 512 µg/mL (≈ 1180 µM); against Candida albicans it was 512 µg/mL (≈ 1180 µM); in the test with Staphylococcus aureus [1], 1020 µg/mL (≈ 2370 µM).

For `O=C(NC(=S)Nc1ccc(-c2ccc(=O)[nH]n2)cc1)c1c(Cl)cc(Cl)cc1Cl`, the minimal inhibitory concentration (MIC) against Escherichia coli turned out to be 256 µg/mL (≈ 564 µM); in the test with Candida albicans it was 512 µg/mL (≈ 1130 µM); in the test with Staphylococcus aureus [1] it was 128 µg/mL (≈ 282 µM).

As to `O=C(Nc1ccc(Oc2ccc(=O)[nH]n2)cc1)Nc1ccc(Cl)c(Cl)c1`, the MIC against Staphylococcus aureus [2] turned out to be 0.5 µg/mL (≈ 1.28 µM).

Turning to `O=c1ccc(-c2ccc(NS(=O)(=O)c3ccc(F)c(Cl)c3)cc2)n[nH]1`, the MIC was found to be 256 µg/mL (≈ 674 µM) in the test with Escherichia coli, 256 µg/mL (≈ 674 µM) in the test with Candida albicans and 128 µg/mL (≈ 337 µM) with Staphylococcus aureus [1].

For `O=C(NC(=S)Nc1ccc(-c2ccc(=O)[nH]n2)cc1)c1ccc([N+](=O)[O-])cc1`, the MIC is > 1020 µg/mL against Escherichia coli, 512 µg/mL (≈ 1290 µM) against Candida albicans and > 1020 µg/mL in the test with Staphylococcus aureus [1].

Regarding `O=C(NC(=S)Nc1ccc(-c2ccc(=O)[nH]n2)cc1)c1ccc(F)cc1`, the MIC in the test on Escherichia coli was determined as 256 µg/mL (≈ 695 µM); in the test with Candida albicans, 512 µg/mL (≈ 1390 µM); against Staphylococcus aureus [1], 256 µg/mL (≈ 695 µM).

Molecule `O=C(Nc1ccc(Cl)c(C(F)(F)F)c1)Nc1ccc(Cl)c(C(F)(F)F)c1` displayed an IC50 in test [3] of 1.13 nM. In the test on Staphylococcus aureus [2], this molecule returned a minimal inhibitory concentration (MIC) of 0.25 µg/mL (≈ 0.599 µM).

Take `O=C(NC(=S)Nc1ccc(-c2ccc(=O)[nH]n2)cc1)c1ccc(F)c(Cl)c1`: the MIC was found to be 256 µg/mL (≈ 635 µM) with Escherichia coli, 512 µg/mL (≈ 1270 µM) with Candida albicans and 512 µg/mL (≈ 1270 µM) in the test with Staphylococcus aureus [1].

Take `O=C(NC(=S)Nc1ccc(-c2ccc(=O)[nH]n2)cc1)c1ccccc1`: the MIC in the test on Escherichia coli came to 256 µg/mL (≈ 731 µM); with Candida albicans it was 512 µg/mL (≈ 1460 µM); against Staphylococcus aureus [1] it was 256 µg/mL (≈ 731 µM).

Consider `O=c1ccc(-c2ccc(NS(=O)(=O)c3ccc(Cl)cc3)cc2)n[nH]1`, for which the MIC against Escherichia coli is 256 µg/mL (≈ 708 µM); against Candida albicans it was 256 µg/mL (≈ 708 µM); against Staphylococcus aureus [1], 128 µg/mL (≈ 354 µM).

Molecule `N#Cc1ccc(Oc2cccc(NC(=O)Nc3ccc(Cl)c(C(F)(F)F)c3)c2)cc1Cl` gave an MIC in the test with Staphylococcus aureus [2] of 0.5 µg/mL (≈ 1.07 µM).

Take `O=C(NC(=S)Nc1ccc(-c2ccc(=O)[nH]n2)cc1)c1ccc(Br)cc1`: the minimum inhibitory concentration (MIC) was 128 µg/mL (≈ 298 µM) against Escherichia coli, 512 µg/mL (≈ 1190 µM) against Candida albicans and 128 µg/mL (≈ 298 µM) with Staphylococcus aureus [1].

With `O=C(Nc1ccc(-c2ccc(=O)[nH]n2)cc1)Nc1ccc(Cl)c(C(F)(F)F)c1`, the IC50 in test [3] was 1800 nM. Further, the MIC in the test with Staphylococcus aureus [2] was > 128 µg/mL.

In the case of `O=C(Nc1ccc(-c2ccc(=O)[nH]n2)cc1)Nc1cccc(Br)c1`, the MIC against Escherichia coli was 512 µg/mL (≈ 1330 µM); in the test with Candida albicans it was > 1020 µg/mL; against Staphylococcus aureus [1] it was 128 µg/mL (≈ 332 µM).

Take `O=C(Nc1ccc(Cl)c(C(F)(F)F)c1)C(CCl)C(=O)Nc1ccc(Cl)c(C(F)(F)F)c1`: the MIC in the test with Staphylococcus aureus [2] was determined as 0.5 µg/mL (≈ 0.985 µM).

`CC(=O)N1CCN(c2ccc(OCC3COC(Cn4ccnc4)(c4ccc(Cl)cc4Cl)O3)cc2)CC1` (stereo not drawn) [KETOCONAZOLE]: 2 µg/mL (≈ 3.76 µM) was the least that counted as inhibitory against Candida albicans (MIC).

As to `O=c1ccc(/C=C/c2ccc(NS(=O)(=O)c3ccc(Cl)c(Cl)c3)cc2)n[nH]1`, the minimum inhibitory concentration (MIC) in the test on Escherichia coli, against Candida albicans and against Staphylococcus aureus [1] was 512 µg/mL (≈ 1210 µM) each time.

Consider `O=c1ccc(-c2ccc(NC(=S)Nc3cccc(Br)c3)cc2)n[nH]1`, for which the minimum inhibitory concentration (MIC) in the test on Escherichia coli was 1020 µg/mL (≈ 2550 µM); against Candida albicans, 32 µg/mL (≈ 79.7 µM); with Staphylococcus aureus [1], 128 µg/mL (≈ 319 µM).

For the molecule `O=C(NC(=S)Nc1ccc(/C=C/c2ccc(=O)[nH]n2)cc1)c1cccc(Br)c1`, the MIC against Escherichia coli worked out at 256 µg/mL (≈ 562 µM); in the test with Candida albicans it was 512 µg/mL (≈ 1120 µM); against Staphylococcus aureus [1], 1020 µg/mL (≈ 2250 µM).

For `O=C(NC(=S)Nc1ccc(Cl)cn1)c1ccc(N2CCCCC2)c([N+](=O)[O-])c1`, in the test on Staphylococcus aureus [2], the minimal inhibitory concentration (MIC) stood at 0.06 µg/mL (≈ 0.143 µM).

Regarding `O=c1ccc(-c2ccc(NS(=O)(=O)c3cccc(Cl)c3)cc2)n[nH]1`, the MIC in the test on Escherichia coli is 1020 µg/mL (≈ 2830 µM); in the test on Candida albicans it was 256 µg/mL (≈ 708 µM); in the test on Staphylococcus aureus [1], 256 µg/mL (≈ 708 µM).

Consider `O=c1ccc(-c2ccc(NC(=S)Nc3cccc(Cl)c3)cc2)n[nH]1`, for which the MIC against Escherichia coli was determined as 256 µg/mL (≈ 717 µM); in the test with Candida albicans it was 16 µg/mL (≈ 44.8 µM); in the test on Staphylococcus aureus [1], 128 µg/mL (≈ 359 µM).

Take `O=C(NC(=S)Nc1ccc(-c2ccc(=O)[nH]n2)cc1)c1ccc(Cl)cc1`: the values for the MIC with Escherichia coli, against Candida albicans and in the test with Staphylococcus aureus [1] were 512 µg/mL (≈ 1330 µM), 512 µg/mL (≈ 1330 µM) and 256 µg/mL (≈ 665 µM), respectively.

A word on the MIC: it is the smallest concentration in the dilution series that meets the test's criterion for growth inhibition. A low value points to a more susceptible organism. By IC50 is commonly meant the point on the concentration scale where inhibition reaches its midpoint. Lower therefore signals inhibition by little substance.

For the origin of these results see ChEMBL document CHEMBL6083209, “Pyridazinone-based derivatives as anticancer agents endowed with anti-microbial activity: molecular design, synthesis, and biological investigation” (RSC Med Chem, 2024).
